The numbers were not newly measured in patent US20250228797A1, “SYNERGIC AND STABLE PHARMACEUTICAL COMPOSITION OF AN NSAID AND AN OPIOID ANALGESIC FOR PAIN AND INFLAMMATION” (LABORATORIOS SILANES, S.A. DE C.V., priority 2024, published 2025), which cites them from elsewhere.

For data set [1], the system named is moderate to severe post-operatory pain. The following applies: intravenous or intramuscular.
The conditions of data set [2]: in vivo.

The structures appear in SMILES notation.

Turning to `COc1cccc([C@@]2(O)CCCC[C@@H]2CN(C)C)c1` [tramadol, (1R,2R)-2-[(dimethylamino)methyl]-1-(3-methoxyphenyl)cyclohexan-1-ol], in data set [1], the “Analgesic potency relative to nalbuphine” value is “one-fifth” and the “Analgesic potency relative to pethidine (meperidine)” value is “equivalent”. Besides, the “Incidence of serious adverse reactions” value in data set [2] is “less than 1%”.
